Assay results taken from US20250302882A1, “PHARMACEUTICAL COMPOSITION FOR PREVENTING OR TREATING NEURODEGENERATIVE DISEASE, CONTAINING, AS ACTIVE INGREDIENTS, CYCLODEXTRIN AND STEM CELLS IN WHICH VEGF IS OVEREXPRESSED” (KYUNGPOOK NATIONAL UNIVERSITY INDUSTRY-ACADEMIC COOPERATION …, priority 2017, published 2025).

Key:
[1] = introduced into SVZ; Application No. 10-2017-0015676; cited from earlier work
[2] = test system: NP-C mice; assay: Inflammatory response of the cortex by GFAP (astrocyte) staining; type: in vivo; conditions: 10-week-old
Procedure: (§1) Administration of cyclodextrin (Sigma, H107) and VEGF-overexpressed neural stem cells was performed on a schedule as illustrated in FIG. 1. Specifically, NP-C mice or VEGFNP-C mice were subcutaneously injected with cyclodextrin by 4000 mg/kg from 1 week old. When the NP-C mice injected with the cyclodextrin were 4-week-old, a cannula was mounted in a subventricular zone (SVZ) for combined injection into the SVZ of the VEGF-overexpressed neural stem cells, and the VEGF-overexpressed neural stem cells (to 1×10^6 cell/3 ul) were injected into the SVZ twice a week. A cell injection rate was implanted at a flow rate of 0.3 μl/min.
(§2) The brain tissue (cortex or cerebellum) of a mouse was cut to a thickness of 50 μm using vibratome, and then cultured with anti-GFAP (rabbit, 1:500, DAKO) and anti-Calbindin (rabbit, 1:100, milipore). In addition, filipin staining (Polysciences, Inc.) was performed on tissues of each organ from the mouse to confirm the accumulation degree of cholesterol. Cortex, cerebellum, liver, lung, kidney, and spleen sites were analyzed using a laser scanning confocal microscope or an Olympus BX51 microscope equipped with Fluoview SV1000 imaging software (Olympus FV1000, Japan). A percentage of an area of a stained area to an area of total tissues was quantified using Metamorph software (Molecular Devices). […]

[3] = test system: NP-C mice; assay: Lipid accumulation (sphingosine, sphingomyelin) in cortex, cerebellum and organs, UPLC; type: in vivo; conditions: VEGFNP-C mice, 10-week-old
Procedure: as §1
The cortex, the cerebellum, and organs (liver, lung, kidney, spleen, etc.) of each mouse were extracted, added with a homogeneous buffer solution containing 50 mM HEPES (Invitrogen), a 150 mM sodium chloride solution (NaCl) (Sigma), 0.2% Igepal CA-630 (Sigma), and a protease inhibitor (Milipore), homogenized using a homogenizer, and then centrifuged at 13,000 rpm for 10 minutes. After 10 minutes, additional centrifugation was performed at 13,000 rpm for 30 minutes. […] A dry lipid extract obtained above was resuspended in 0.2% Igepal CA-630 (Sigma), and then the concentration of each lipid was measured using a UPLC system. […]

[4] = test system: NP-C mice; assay: Inflammatory response of the cerebellum by GFAP (astrocyte) staining; type: in vivo; conditions: 10-week-old
Procedure: as §1, §2

[5] = test system: NP-C mice; assay: Mobility by Rota-rod and Beam tests; type: in vivo; conditions: for each week age
Procedure: as §1
In order to confirm the mobility of a mouse in each test group, Rota-rod and Beam tests were performed. In the Rota-rod test (Ugo Basile, Comerio, VA, Italy), a Rota-rod movement was performed three times or more at a rotation rate of 4 rpm using a machine equipped with a rod of a diameter of 3 cm which was appropriately processed for providing a grip, and then an endurance time of a test animal was measured in units of second and an average value thereof was recorded. […] In the Beam test, a mouse was placed on a starting point of a rod of a width of 6 mm or 12 mm and then a time taken to move to an end point was measured. […]

[6] = test system: NP-C mice; assay: Cholesterol accumulation by Amplex red assay and Filipin staining; type: in vivo; conditions: VEGFNP-C mice; 10-week-old; cortex, cerebellum and organs
Procedure: as §1, §2

[7] = test system: NP-C mice; assay: Cerebellar neural cells by Calbindin staining (Purkinje neuron); type: in vivo; conditions: VEGFNP-C mice; 10-week-old
Procedure: as §1, §2

[8] = test system: NP-C mice; assay: Survival rate of NP-C mice; type: in vivo; conditions: VEGFNP-C mice (brain cell-specific VEGF-overexpressed NP-C mice); cyclodextrin 4000 mg/kg once a week s.c.; compared to NP-C mice given cyclodextrin alone
Text: (§3) In Balb/C (Orient, wild type), NPC mutant mice in which an NPC1 gene is deleted (RIKEN, received from Japan, NP-C mice; a weight was smaller than that of normal mice with the same week old, a serious mobility loss was shown from 4 to 6 week old to show tremors and seizures of the limbs, and a lifespan was approximately 9 to 10 weeks), and brain cell-specific VEGF-overexpressed NP-C mice (VEGFNP-C mice; produced through mating of VEGFtg mice overexpressing VEGF in a brain cell-specific promoter (received from University of Heidelberg, Germany, Yaoming Wang et al., (2005)) and NP-C mice, a lifespan was approximately 9 to 10 weeks like the NP-C mice, and brain inflammation and lipid accumulation were alleviated as compared to the NP-C mice), systems thereof were kept by genotyping through PCR. The mice were disposed in a test group by using a block randomization method. In order to eliminate prejudice, […]. All mice tests were approved by Kyungpook National University Institutional Animal Care and Use Committee (IACUC).
(§4) Administration of cyclodextrin (Sigma, H107) and VEGF-overexpressed neural stem cells was performed on a schedule as illustrated in FIG. 1. Specifically, NP-C mice or VEGFNP-C mice were subcutaneously injected with cyclodextrin by 4000 mg/kg from 1 week old. […]

[9] = test system: NP-C mice; assay: Change in weight of NP-C mice; type: in vivo; conditions: VEGFNP-C mice; cyclodextrin 4000 mg/kg once a week s.c.; compared to NP-C mice given cyclodextrin alone
Text: as §3, §4

Substance	medicinal effect by improvement of an SVZ environment [1]	inflammatory response (GFAP: astrocyte) in the cortex ([2]; NP-C mice)	inflammatory response (GFAP: astrocyte) in the cortex ([2]; VEGFNP-C mice)	sphingosine accumulated in the cortex and the cerebellum [3]	sphingomyelin accumulation ([3]; liver, lung, kidney, spleen, cortex and cerebellum)	inflammatory response (GFAP: astrocyte) in the cerebellum ([4]; NP-C mice)	inflammatory response (GFAP: astrocyte) in the cerebellum ([4]; VEGFNP-C mice)	mobility (Rota-rod and Beam tests) ([5]; NP-C mice)	mobility (Rota-rod and Beam tests) ([5]; VEGFNP-C mice)	accumulation of cholesterol [6]	reduced neural cells (Calbindin: Purkinje neuron) in the cerebellum [7]	survival rate [8]	weight [9]
VEGF	could not be achieved												
cyclodextrin		somewhat alleviated	more effectively improved	most effectively reduced	most effectively reduced	alleviated to a certain level	more effectively alleviated	improved mobility compared to NP-C mice	most effective	more reduced	most efficiently increased	significantly increased	significantly increased
